Results on 5 compounds are retold here after patent publication US6624144B1, “Matrix metalloproteinase inhibitors and down-regulators” (CTT Cancer Targeting Technologies Oy, priority 1998, dated 2003).

The target in one data set is T1, MMP-2 (Homo sapiens, UniProt P08253).
T1 construct: endogenous in cells; host or cells: human gingival fibroblasts (serum-free culture medium)
T1 sequence (P08253 110-660): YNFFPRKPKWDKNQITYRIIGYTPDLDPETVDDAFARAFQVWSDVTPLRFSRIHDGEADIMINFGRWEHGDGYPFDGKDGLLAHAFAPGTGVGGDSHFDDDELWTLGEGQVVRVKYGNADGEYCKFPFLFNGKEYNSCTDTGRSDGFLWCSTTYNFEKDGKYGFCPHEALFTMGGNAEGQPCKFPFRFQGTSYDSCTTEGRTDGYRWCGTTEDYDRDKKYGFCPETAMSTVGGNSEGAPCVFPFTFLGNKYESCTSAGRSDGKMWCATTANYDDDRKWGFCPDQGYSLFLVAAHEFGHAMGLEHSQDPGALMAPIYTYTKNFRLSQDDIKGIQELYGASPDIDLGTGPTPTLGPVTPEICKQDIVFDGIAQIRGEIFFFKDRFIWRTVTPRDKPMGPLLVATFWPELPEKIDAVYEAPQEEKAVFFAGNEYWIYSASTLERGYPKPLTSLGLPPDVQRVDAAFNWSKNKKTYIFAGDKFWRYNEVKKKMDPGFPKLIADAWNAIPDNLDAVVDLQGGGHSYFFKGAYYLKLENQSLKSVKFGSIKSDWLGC
Put plainly: β-casein degradation by MMP-2 (SDS gel). The format is biochemical. Particulars: APMA-activated MMP-2, β-casein. Here is the method: (§1) After 1 h pretreatment with the peptides, APMA-activated MMP-2 (A, C) or proMMP-2 (B, D) was incubated with the casein for 2 h. 52 μM β-casein was used as substrate for MMPs. Shown is Coomassie Blue-staining of the 21 kD β-casein (lane 1) and its fragments (lanes 2-9) resolved by SDS-PAGE (A, B); CTTHWGFTLC(SEQ ID NO:3) was used at the concentrations of (2) 0 μg/ml, (3) 75, (4) 50, (5) 25, (6) 10, (7) 5, (8) 1, and (9) 0.5 μg/ml in the lanes 2-9, respectively. (C, D); the concentrations of CRRHWGFEFC(SEQ ID. NO:2) were 0, 250, 100, 50, 25, 10, 1, and 0.5 μg/ml, respectively.
(§2) For the gelatin and casein degradation assays, purified MMP-2 and MMP-9 (50-100 ng) were first incubated for 60 min with various concentrations of the peptide inhibitors, after which a 21 kDa β-casein (52 μM) or [^125I]-gelatin substrate was added. After incubation for 2 h at 22 ° C., degradation of the casein was analyzed by SDS gel electrophoresis. The degradation of [^125I]-gelatin was determined by counting radioactivity in the supernatant after precipitation of undegraded gelatin with 20% trichloroacetic acid.
(§3) We also used β-casein as a substrate for the gelatinases and analyzed the degradation products by SDS gel electrophoresis.

The target in a further data set is T2, proMMP-2 (Homo sapiens, UniProt P08253).
T2 construct: endogenous in cells; host or cells: human gingival fibroblasts (serum-free culture medium)
T2 sequence (P08253 30-660 limits assumed): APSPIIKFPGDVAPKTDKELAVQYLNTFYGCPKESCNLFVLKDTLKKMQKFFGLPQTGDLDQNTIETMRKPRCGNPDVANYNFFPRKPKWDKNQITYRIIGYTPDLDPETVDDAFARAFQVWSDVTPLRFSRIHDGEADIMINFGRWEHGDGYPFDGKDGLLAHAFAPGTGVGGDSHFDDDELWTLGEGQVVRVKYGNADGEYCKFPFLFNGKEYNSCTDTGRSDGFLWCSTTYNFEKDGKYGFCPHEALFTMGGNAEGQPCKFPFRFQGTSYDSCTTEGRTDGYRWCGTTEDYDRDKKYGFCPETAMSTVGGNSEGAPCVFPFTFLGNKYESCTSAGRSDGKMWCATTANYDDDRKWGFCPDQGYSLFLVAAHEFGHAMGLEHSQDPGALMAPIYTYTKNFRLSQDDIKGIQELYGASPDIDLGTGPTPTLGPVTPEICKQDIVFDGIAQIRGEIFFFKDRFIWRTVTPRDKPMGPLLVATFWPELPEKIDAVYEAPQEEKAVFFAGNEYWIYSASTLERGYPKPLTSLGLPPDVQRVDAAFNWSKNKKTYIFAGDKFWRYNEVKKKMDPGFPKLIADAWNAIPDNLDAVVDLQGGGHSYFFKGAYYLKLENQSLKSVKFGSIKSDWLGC
Kind of data set: β-casein degradation by proMMP-2 not preactivated with APMA. The format is biochemical. Here is the method:
as §1, §2, §3

The target of another data set is T3, APMA-activated MMP-9 (Homo sapiens, UniProt P14780).
T3 construct: from tissue; host or cells: human neutrophils
Put plainly: [125I]-gelatin degradation by APMA-activated MMP-9. The format is biochemical. As to conditions: APMA-activated MMP-9; read-out: half-maximal inhibitory value (IC50), [125I]-gelatin degradation (converted). Here is the method:
(§4) ProMMP-9 was purified from human neutrophils and activated with aminophenyl mercuric acetate (APMA) essentially as described by Hibbs et al. (1985). For the selection of MMP-9 binding phage, APMA-activated MMP-9 was coated on microtiter wells overnight at 4° C. using a concentration of 1 μg/ml, after which the […] were saturated with 5 % bovine serum albumin. In the first panning, the library was incubated overnight at 4° C. in 50 mM Tris-HCl/0.1 M NaCl buffer (pH 7.5) (TBS) containing 1% bovine serum albumin, and after extensive washing the bound phage were eluted with low pH buffer. In the subsequent pannings, the amplified phage were allowed to bind for 1 h at 22° C. […] The bound phage were quantitated by adding 50 ng per well of anti-M13 antibody (Pharmacia, Uppsala, Sweden) labeled with an Europium-chelate (Wallac Ltd., Turku, Finland). After incubation for 45 min followed by washing, the fluorescence was measured with 1230 Arcus fluorometer (Wallac Ltd., Turku, Finland).
(§5) For the gelatin and casein degradation assays, purified MMP-2 and MMP-9 (50-100 ng) were first incubated for 60 min with various concentrations of the peptide inhibitors, after which a 21 kDa β-casein (52 μM) or [^125I]-gelatin substrate was added. After incubation for 2 h at 22 ° C., degradation of the casein was analyzed by SDS gel electrophoresis. […]

The next data set deals with T4, proMMP-9 (Homo sapiens, UniProt P14780).
T4 construct: from tissue; host or cells: human neutrophils
Kind of data set: [125I]-gelatin degradation by proMMP-9 (autoactivating). The format is biochemical. As to conditions: peptide 10 μg/ml. On the procedure:
as §4, §5

Data set [1] can be described thus: Toxicity when injected into animals. Particulars: in vivo.
A short description of data set [2]: Solubility in aqueous buffers.
The subject of data set [3] is HT1080 fibrosarcoma cells. Put plainly: Transwell random migration of HT1080 cells. Type of data set: cell-based. As to conditions: 500 μg/ml, control peptides. Here is the method:
The endothelial cell line HUVEC (human umbilical vein endothelial cells, obtained from the ATCC, Rockville, Md.) was grown in RPMI 1640 medium containing penicillin (100 units/ml), streptomycin (100 μg/ml), 10 mM HEPES, 30 μg/ml endothelial cell growth supplement (Biomedical Technologies, Stoughton, Mass.), and 20% fetal calf serum. The HT1080 fibrosarcoma cells (ATCC, Rockville, Md.), C8161 melanoma cells and Eahy926 cells (derivative of HUVEC) were cultured in Dulbecco's modified Eagle's medium containing the antibiotics, 10% fetal calf serum, and hypoxanthine/aminopterin/thymidine additive with the Eahy926 cells. Cultures of cells were harvested with trypsin-EDTA (endothelial cells) or EDTA alone (other cells), washed, and resuspended in the full serum-containing media as indicated above.
Random cell migration was studied using […] pore size and 6.5 mm diameter Transwell inserts (Costar, Cambridge, Mass.) that were equilibrated in the serum-containing medium for 2 h before use. Tumor cell invasion was studied using 6.4 mm diameter Boyden chambers precoated with Matrigel (Becton Dickinson, Bedford, MA) and equilibrated in the serum-containing medium. […] Cells were removed from the upper surface of the membrane with a cotton swab, and the cells migrated on the undersite of the membrane were counted microscopically, or alternatively quantitated by scanning.

Bridge positions count the residues as written; N and C are the ends. Ends that are not written are not given here. Peptide text beside a SMILES is read from it.

Broadly, the IC50 is the midpoint of a concentration-inhibition curve.

T3 sequence (P14780 107-707 limits assumed): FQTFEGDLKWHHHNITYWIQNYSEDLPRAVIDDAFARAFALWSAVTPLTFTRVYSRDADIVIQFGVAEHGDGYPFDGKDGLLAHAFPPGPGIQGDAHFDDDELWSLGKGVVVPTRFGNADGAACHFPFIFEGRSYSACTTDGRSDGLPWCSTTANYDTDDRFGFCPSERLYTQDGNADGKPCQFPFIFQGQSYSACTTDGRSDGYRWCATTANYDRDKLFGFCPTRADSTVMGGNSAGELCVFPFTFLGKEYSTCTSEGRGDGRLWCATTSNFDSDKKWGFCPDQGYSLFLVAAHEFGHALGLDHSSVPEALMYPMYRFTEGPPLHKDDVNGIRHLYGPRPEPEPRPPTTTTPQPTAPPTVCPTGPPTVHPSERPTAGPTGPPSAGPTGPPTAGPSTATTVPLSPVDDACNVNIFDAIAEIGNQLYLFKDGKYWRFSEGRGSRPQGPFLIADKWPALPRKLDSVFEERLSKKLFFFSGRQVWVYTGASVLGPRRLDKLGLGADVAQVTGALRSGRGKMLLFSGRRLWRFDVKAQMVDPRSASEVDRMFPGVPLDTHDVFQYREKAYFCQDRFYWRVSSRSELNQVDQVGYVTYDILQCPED
T4 sequence (P14780 20-707 limits assumed): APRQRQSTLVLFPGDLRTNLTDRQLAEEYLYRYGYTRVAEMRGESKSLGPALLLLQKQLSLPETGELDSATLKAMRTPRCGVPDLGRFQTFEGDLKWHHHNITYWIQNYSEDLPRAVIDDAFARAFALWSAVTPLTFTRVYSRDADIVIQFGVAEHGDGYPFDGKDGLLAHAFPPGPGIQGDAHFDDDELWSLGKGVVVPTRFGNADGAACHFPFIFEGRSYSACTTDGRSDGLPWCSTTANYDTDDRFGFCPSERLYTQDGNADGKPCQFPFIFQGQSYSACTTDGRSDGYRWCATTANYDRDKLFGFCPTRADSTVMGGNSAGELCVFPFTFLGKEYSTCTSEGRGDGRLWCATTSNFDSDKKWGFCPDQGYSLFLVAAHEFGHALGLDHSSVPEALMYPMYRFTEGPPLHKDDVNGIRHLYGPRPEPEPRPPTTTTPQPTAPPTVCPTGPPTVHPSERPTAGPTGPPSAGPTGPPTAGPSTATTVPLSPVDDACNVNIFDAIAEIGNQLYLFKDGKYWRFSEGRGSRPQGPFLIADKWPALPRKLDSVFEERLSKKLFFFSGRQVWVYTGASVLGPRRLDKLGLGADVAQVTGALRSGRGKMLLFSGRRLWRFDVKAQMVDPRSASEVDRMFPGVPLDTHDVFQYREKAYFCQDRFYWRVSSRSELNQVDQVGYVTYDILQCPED

As to `N=C(N)NCCC[C@@H]1NC(=O)[C@H](CCCNC(=N)N)NC(=O)[C@@H](N)CSSC[C@@H](C(=O)O)NC(=O)[C@H](Cc2ccccc2)NC(=O)[C@H](CCC(=O)O)NC(=O)[C@H](Cc2ccccc2)NC(=O)CNC(=O)[C@H](Cc2c[nH]c3ccccc23)NC(=O)[C@H](Cc2c[nH]cn2)NC1=O` [CRRHWGFEFC] (H-CRRHWGFEFC-OH; disulfide 1-10; N-terminus and C-terminus assumed), the IC50 on MMP-2 is roughly 18.7 µM; at proMMP-2, 18.7 µM; at APMA-activated MMP-9, roughly 7.47 µM. Further, the “inhibition of proMMP-9 gelatinolytic activity” value against proMMP-9 was “more than 50%”.

As for `CC(C)C[C@@H]1NC(=O)[C@H]([C@@H](C)O)NC(=O)[C@H](Cc2ccccc2)NC(=O)CNC(=O)[C@H](Cc2c[nH]c3ccccc23)NC(=O)[C@H](Cc2c[nH]cn2)NC(=O)[C@H]([C@@H](C)O)NC(=O)[C@H]([C@@H](C)O)NC(=O)[C@@H](N)CSSC[C@@H](C(=O)O)NC1=O` [CTTHWGFTLC] (H-CTTHWGFTLC-OH; disulfide 1-10; N-terminus and C-terminus assumed), the IC50 against MMP-2 is roughly 4.29 µM; at proMMP-2, 4.29 µM. For the same compound, in data set [1], the “toxicity when injected into animals” value is “no toxicity”.

Consider CQWNNDNPLFKEAEEEVMNPKFAES, for which the solubility result in data set [2] is on record as “highly soluble”.

“EVGTGSCNLECVSTNPLSGTEQ (Targeted to Homo sapiens)”: the solubility entry in data set [2] is on record as “highly soluble”. In addition, in data set [3], the “effect on cell migration” value was “None of these control peptides affected cell migration”.

As for RAVRALWRC [RAVRALWRC], the solubility entry in data set [2] is given as “highly soluble”.
